How the values were obtained:
Format in all cases: physicochemical
[1] = Oscillatory rheology of PEG-OND hydrogels
Description: Oscillatory rheology was used to assess the viscoelastic properties of selected PEG-OND hydrogels. […] The truncated cone was then brought in contact with the bis-EONB/4-PEG-SH mixture before setting of the gel by positioning the tool at the measuring position. The sample was inspected for spillovers and trimmed as required. A preliminary preshearing step consisting of 30 seconds at 0.1% strain and ω=0.01 rad/s was performed to ensure good contact with the gel sample. The elastic (storage) and viscous (loss) moduli, G′ and G″, respectively, were then measured as a function of time for a constant strain of 1% and an angular frequency of 1 rad/sec. The ability to store energy is described by G′, while the amount of energy dissipated is related with G″. It was observed that the sample experienced a rapid transformation from an initial state in which G′ was not much larger than G″ to a state in which G′ was clearly predominant, as shown in FIG. 5; this is consistent with gelation. The observed transformation happened in the first few minutes after preparation, even when the hydrogel continued to rigidify for up to 2-3 hours.
The linear regime of this sample was determined by performing an oscillatory strain sweep at 37° C. The frequency sweep shown in the main text was thus performed in the linear region.
[…] In both experiments, G′>>G″.

[2] = Gelation of 4-PEG-SH with OND linkers, gelation time by inversion test
Description: PEG-OND hydrogels were prepared by mixing tetravalent thiol-terminated PEG (4-PEG-SH, Mw˜2,500 Da for each arm) at 3.5 weight percent and multivalent OND linkers at equimolar concentration of thiol and electrophile in phosphate buffer containing 7% DMSO by volume (FIG. 42). The reactions were mixed briefly and the gel was allowed to cure at temperature or 37° C. Gelation time was recorded as the point at which the sample no longer flowed upon inversion of the reaction vessel.
Trial gelations were performed by premixing a solution of linker 7a with four-armed thiol-terminated poly(ethylene glycol) (4-PEG-SH. Mn=10,000) in neutral water containing 17% DMSO by volume. The overall concentration of PEG macromer was varied from 0.4 wt % to 8.3 wt % while maintaining an equimolar ratio of thiol to electrophile. Under these conditions, no gels formed on standing at room temperature for five minutes.
Based on empirical observations made in these trials, subsequent gels were prepared at room temperature from 3.5 wt % 4-PEG-SH solutions in phosphate buffers containing 7% DMSO at equimolar concentrations of thiol and OND electrophile. Mixtures were mixed briefly with a vortex mixer, and the reaction vial was periodically tilted or inverted. Gelation time was recorded when the sample no longer flowed and was self-supporting. […] Gelation time at 37° C. was determined by pre-warming 4-PEG-SH macromer and OND stock solutions in a 37° C. water bath. Gel components were combined and mixed briefly by pipetting, and the sample was held in the water bath. Gelation time was determined by the inversion test, as described above.
The labeled protein solutions prepared as described in the previous section were diluted three-fold with pH 7.4 100 mM phosphate buffer and used to dissolve the 4-PEG-SH macromer at 3.76 wt %. This solution was used in an identical manner as pure 4-PEG-SH solution for the purpose of forming PEG-OND hydrogels (FIG. 45). All samples formed self-supporting hydrogels within 1 min after mixing, as determined by the inversion test.

[3] = Erosion of swollen hydrogels (BODIPY erosion probe, time-lapse photography); details: 37° C., erosion probe
Excerpt: Degradation behavior of PEG-OND hydrogels under swelling conditions was investigated by labeling 3% of the 4-PEG-SH thiols with a BODIPY fluorophore via maleimide coupling before gelation. Gels prepared from this material are expected to have slightly lower crosslink densities and to degrade sooner when compared to gels formed without the erosion probe (FIG. 19). However, the probe-labeled macromer allowed convenient monitoring and comparison of erosion behavior under conditions relevant for biological applications. An increase in absorbance (504 nm) of the swelling buffer was observed as pieces containing the labeled PEG-thiol components were detached from the gel by rDA fragmentation (FIG. 2). […] Using combinations of linkers, it was possible to produce hydrogels with release profiles tuned between those of gels prepared from a single linker (FIG. 2C).
The 3.76 wt % solution of BODIPY-labeled 4-PEG-SH prepared above was used to form hydrogels using a method identical to unlabeled gels. Briefly, BODIPY-labeled 4-PEG-SH was combined with DMSO stocks of multivalent ONDs at equimolar concentration of thiol and electrophile. […] The absorbance of the supernatant at 504 nm was measured immediately to obtain a baseline measurement (t=0 hours), and the samples were placed into a 37° C. incubator. The absorbance of the swelling supernatant was monitored periodically by removal of 1 mL of buffer into a cuvette and measuring absorbance of the sample at 504 nm. […] This process was repeated for each sample until gel degradation was complete and the absorbance at 504 nm stabilized (100% dye released). In order to estimate the fraction of dye released from the non-degradable gel formed with bi s-EONB 8, a mock endpoint sample consisting of BODIPY-labeled 4-PEG-SH diluted to 3.5 wt % was prepared, and the absorbance at 504 nm was measured. […] The absorbance values collected over the course of the experiment were divided by the absorbance value measured after gel disintegration to obtain fractional dye release versus time. […]
The time at which the glass bead reached the bottom of the tube was recorded. […]

[4] = Equilibrium swelling, gel fraction and Mc (Flory-Rehner) of PEG-OND hydrogels
Description: The swelling of the PEG-OND hydrogels in deionized water was measured at 4° C. to prevent significant fragmentation during the experiment. […] An independent experiment measuring soluble fraction thiol content yielded results complementing those obtained gravimetrically (Table S3, and related discussion below). With the knowledge that small molecules can readily permeate swollen PEG-OND hydrogels (see below), detecting and modifying residual thiols in gels prepared from divalent linkers 7a and 8 by swelling in the presence of a fluorogenic OND derivative was attempted (FIG. 15, and related discussion below).
200 μL gels were prepared in pH 7.4 100 mM phosphate buffered saline containing 7% DMSO with 3.5 wt % 4-PEG-SH and the corresponding bis-, tris-, and tetra-ONDs to provide a 1:1 thiol to electrophile ratio, and allowed to cure for 20 minutes at room temperature. The mass of the gels after curing was recorded (Meq) before suspending in 5.5 mL of water. The hydrogels were stored at 4° C. during swelling to prevent significant degradation of the network during the experiment. The increase in mass of the gels was monitored periodically by decanting and blotting the gel gently with a kimwipe to remove excess water before weighing. After 24 hours swelling, when swelling had stabilized, the mass of the gel was recorded (Meq). The equilibrium mass swelling ratio was then determined using the following relationship:
After weighing equilibrium-swelled gels to determine equilibrium mass swelling ratio, the gels were freeze-dried and the residual mass was weighed (Mres). It is expected that buffer salts present in the sample when it was formed were removed by the multiple changes of swelling solvent (pure water). The mass of the remaining residue was compared to the input mass (Min) of 4-PEG-SH macromer and OND-based linker. The ratio of the residual mass and the input mass provides the fraction of material by mass incorporated into the hydrogel network (gel fraction), as shown in the following equation: […]
The apparent molecular weight between elastically-productive crosslinks (Mc) was determined from equilibrium swelling data, collected as described in section VII.1 and applying a modified form of the Flory-Rehner equation for networks formed under dilute conditions:
[formula] where Mn is the number average molecular weight for the polymeric macromer (10,000 g/mol), v is the specific volume of the polymer ([…] for PEG) V1 is the molar volume of solvent used for swelling ([…] for water), χ is the polymer-interaction parameter (0.43 for PEG-H2O and assumed constant for the described experiments). V2, and V2, are the volume fraction of polymer in the equilibrium swollen gel and the relaxed gel after curing, respectively, and are calculated as follows:
[formula] where qw is the weight swelling ratio after equilibrium swelling, qF is the weight swelling ratio after curing, ρp is the density of the polymer (1.12 g/cm^3 for PEG), ρwater=ρcure solvent is the density of swelling solvent and solvent during gel formation (1.00 g/cm^3 for water). The weight swelling ratios qw and qF are determined from data gathered in equilibrium swelling experiments using the following relationships:
[formula] where ms is the mass of the gel after equilibrium swelling, mc is the mass of the gel after curing, and md is the mass of the dried gel, or input mass of polymer and crosslinkers.
Using the formulae above, masses of hydrogel samples recorded after equilibrium swelling, curing, and drying were applied to estimate the apparent molecular weight between crosslinks, which are summarized in Table 1 of the main text. The experimentally observed Mc values for gels formed using divalent OND linkers was lower than theoretical ideal value Mc,ideal. This can be explained by the fact that the Mc,ideal values calculated for these gels (entries 1-5 of Table S1) are greater than the entanglement molecular weight for polyethylene glycol (˜4,400 g/mol). […]

[5] = Calculation of hydrogel mesh size from equilibrium swelling data; details: equilibrium-swollen gels
Description: Using the calculated molecular weight between crosslinks, Mc, and the method previously described by Canal and Peppas, the hydrogel mesh size was calculated. First, the root-mean-square end-to-end distance of the polymer chains in the network, (r0^2)^1/2, was calculated as follows: (r0^2)^1/2=lCn^1/2n^1/2 (Equation S10) where l is the average bond length in the polymer (0.146 nm for PEG) and Cn is the characteristic ratio of the polymer (4.0 for PEG). The average number of bonds between crosslinks, n is calculated using the following equation:
[formula] where Mc is the average molecular weight between crosslinks, calculated as described in the previous section, and Mr is the molecular weight of the repeating unit for the PEG macromer (44 g/mol). Finally, the mesh size, ξ, is calculated using the following relationship: ξ=v2,s^−1/3(r0^2)^1/2 (Equation S12) where v2, is the partial volume of polymer in the equilibrium swollen hydrogel, and is calculated using the experimentally determined equilibrium weight swelling ratios.

Row | Gel stability ([1]; gel formed at pH 8.0, 4° C.) | Time to revert to the liquid state (crossover of G′ and G″) ([1]; gel formed at pH 8.0, room temperature) [min] | Storage modulus G′ versus loss modulus G″ ([1]; pH 8.0, 4° C., strain and frequency sweeps) | Gelation time ([2]; buffer pH 8.0, room temperature) [min] | Gel formation ([2]; pH 6.5-7.4) | Gel formation ([2]; pH 7.4) | Gel stability under swelling conditions compared with gels from divalent ONDs [3] | Mc (apparent molecular weight between elastic crosslinks) ([4]; calculated with the Flory-Rehner equation from swelling results) [g/mol] | Gel Fraction ([4]; mass of dry residue post-swelling/input mass of OND and 4-PEG-SH) | Equilibrium Swelling Ratio ([4]; mass post-swelling/mass pre-swelling, deionized water, 4° C., 24 hours, n = 3 gels) | Calculated mesh size [5] [nm] | SMILES
1 | fairly stable | ≤ 30 | G′>>G″ | ≤ 1.5 | formed only viscous solutions | did not form self-supporting gels | – | – | – | – | – | COC(=O)C1=C(C(=O)OC)C2(CNC(=O)CCCC(=O)NCC34C=CC(C)(O3)C(C(=O)OC)=C4C(=O)OC)C=CC1(C)O2 [Linker 7c, Tetramethyl 4,4′-((glutaroylbis(azanediyl))bis(methylene))bis(1-methyl-7-oxabicy-clo[2.2.1]hepta-2,5-diene-2,3-dicarboxylate)]
2 | – | – | – | – | – | – | more stable gels | 3846 ± 102 | 0.98 ± 0.08 | 1.54 ± 0.07 | 13.7 ± 1.3 | COC(=O)C1=C(C(=O)OC)C2(CNC(=O)CC(O)(CC(=O)NCC34C=CC(O3)C(C(=O)OC)=C4C(=O)OC)C(=O)NCC34C=CC(O3)C(C(=O)OC)=C4C(=O)OC)C=CC1O2 (centres unmarked) [Linker 11, Tetramethyl 1,1′-(((2-(2-(((2,3-bis(methoxycarbonyl)-7-oxabicyclo[2.2.1]hepta-2,5-dien-1-yl)methyl)amino)-2-oxoethyl)-2-hydroxysuccinyl)bis(azanediyl))bis (methylene))bis(7′-oxabicyclo[2.2.1]hepta-2,5-diene-2,3-dicarboxylate)]

— patent US10517952B2, “Nucleophile-triggered degradable materials and methods of making and using the same” (GEORGIA TECH RESEARCH CORPORATION, priority 2014, dated 2019)
